These results are taken from PMC8653689, “Phenanthrotriazine Derivatives Containing Arylidine Hydrazone Moieties as Novel Potential c-Met Inhibitors with Anticancer Effect” (Iranian Journal of Pharmaceutical Research : IJPR, 2021).

Data set [1] is described as follows: Solubility in aqueous media. Type of data set: physicochemical.
Data set [2] relates to MDA-MB435s melanoma cells. Set-up: method as in PMID 25470024. The note with it: ref [32], [33]; read-out: Cytotoxic effect against MDA-MB435s melanoma cells IC50; cited from earlier work.
Data set [3] has as its system MGC-803 gastric cancer cells. Also noted: method as in PMID 28763643, PMID 24393539. The conditions noted are these: ref [13], [31]; read-out: Antiproliferative activity against MGC-803 gastric cancer cells IC50; cited from earlier work.
Data set [4] relates to DU145 prostate cancer cells. Also noted: method as in PMID 28431881. The conditions noted are these: ref [30]; read-out: Antiproliferative activity against DU145 prostate cancer cells IC50; cited from earlier work.
Data set [5] concerns MDA-MB-231 breast cancer cells. Also noted: method as in PMID 25470024. The conditions noted are these: ref [32], [33]; read-out: Antiproliferative activity against MDA-MB-231 breast cancer cells IC50; cited from earlier work.
In data set [6] the test system is A498 renal cancer cells. Set-up: method as in PMID 30721822, PMID 28431881. The conditions noted are these: at 10 μM; ref [4], [30]; cited from earlier work.
Data set [7] concerns Vero (African green monkey kidney) cells. The experiment in a line: MTT reduction assay, Vero normal cells. Type of data set: cell-based. The note with it: Chlorocebus sabaeus, Vero, 72 h, read-out: Vero IC50. The source says:
(§1) Fetal bovine serum (FBS), phosphate-buffered saline (PBS), RPMI-1640, and trypsin were obtained from Biosera (Ringmer, UK). Penicillin/streptomycin and MTT (3-(4,5-dimethylthiazol-2-yl)-2,5-diphenyltetrazolium bromide) were from Sigma-Aldrich (Saint Louis, MO, USA) and Invitrogen (San Diego, CA, USA), respectively. Dimethyl sulfoxide and doxorubicin were purchased from Merck (Darmstadt, Germany) and EBEWE Pharma (Unterach, Austria), respectively. The cells were acquired from Iranian Biological Resource Center, Tehran, Iran (HT-29 (human colorectal adenocarcinoma), MCF-7 (human breast adenocarcinoma) and Vero (African green monkey kidney) cells) or National Cell Bank of Iran, Pasteur Institute, Tehran, Iran (MOLT-4 (lymphoblastic leukemia) cells).
(§2) MTT reduction assay was employed to assess the viability of cancer cells after being treated with synthesized derivatives as previously described ([34]). The cells were plated in flat-bottom 96-well microplates, at densities of 3 × 10^4 cells/mL (100 μL in each well) and then incubated overnight at 37 °C. Three to four different concentrations of synthesized derivatives (in the range of 1 to 100 μM) were placed in triplicate wells and the plates were incubated for 72 h at 37 °C. […] At the end of the incubation time, 80 μL of the media in each well was replaced with the same amount of growth medium without phenol red containing 0.5 mg/mL of MTT. Cells were further incubated at 37 °C for 4 h and then 80 μL of the solution of each well was removed. The addition of DMSO (200μL) to each well solubilized the formazan crystals formed inside the viable cells after 1-hour incubation followed by 30-minute shaking. The optical absorbance of the final solution was determined at 570 nm using a Bio-Tek multimode plate reader (Synergy HTX). The cell viability was calculated compared to untreated control cells by comparison of absorbance measurements. CurveExpert software (version 1.34 for Windows) was used to determine the IC50 value for each compound. To confirm the results, every experiment was repeated 3 to 5 times.

The subject of data set [8] is HT-29 (human colorectal adenocarcinoma) cells. The experiment in a line: MTT reduction assay, antiproliferative effect, HT-29. The class given is cell-based. The note with it: Homo sapiens, HT-29, 72 h, read-out: HT-29 IC50.
Excerpt: as §1, §2

Data set [9] relates to MCF-7 cells. The experiment in a line: Hoechst 33258 staining, detection of apoptosis. Type of data set: cell-based, human. The conditions noted are these: MCF-7, 72 h treatment, especially at 25 µM. How it is done: Hoechst 33258 was used as a DNA stain to detect apoptosis in cells. MCF-7 cells were seeded in a 6-well plate at a density of 5 × 10^4 cells/mL (2 mL per well) and incubated for 24 h. The whole medium was removed and different concentrations of test compounds 9g, 9j, 9k, and 9l diluted in 2 mL medium were placed in the different wells and incubated for 72 h. Afterward, the medium was removed again, 1 mL of 4% cold freshly prepared paraformaldehyde (PFA) was added, and cells were incubated for 20 min at room temperature. The cells were then washed 2 times with 1 ml PBS and incubated with 1 mL Hoechst 33258 2.5 µg/mL for 30 min in the dark at room temperature ([36], [37]). In the end, the cells were washed with 1 mL PBS and imaged with a fluorescence microscope.
Figure 3 Detection of apoptosis in MCF-7 cells by Hoechst staining. Hoechst 33258 was used as a DNA stain to detect apoptosis in MCF-7 cells treated with synthesized compounds. The cells were seeded in a 6-well plates and treated with different concentrations of test compounds 9g, 9j, 9k and 9l for 72 h. After removing the whole medium, 4% cold freshly prepared paraformaldehyde (PFA) was added for 20 min at room temperature, the cells were then washed twice with PBS, and incubated with Hoechst 33258 2.5 µg/mL for 30 min at room temperature in the dark. Finally, the cells were washed with PBS again and the plates were imaged with a fluorescence microscope

Data set [10] concerns MCF-7 cells. The experiment in a line: Cell cycle analysis, propidium iodide/RNase flow cytometric assay. The conditions noted are these: 48 h; for Effect on number of cells in G0/G1: MCF-7, 10 and 25 µM. The class given is cell-based, human. How it is done:
Alterations of the cell cycle were determined by the propidium iodide (PI)-RNase flow cytometric method ([35]). MCF-7 cells were used to determine the percentage of cells in each phase of the cell cycle. In 6-well plates, 2 × 10^5 cells were seeded in each well and incubated at 37 °C for 48 h. Afterward, they were treated for 48 h with derivatives 9g, 9j, 9k and 9l at 10 and 25 μM. The cells were then collected after trypsinization, washed twice with PBS, and fixed by 5 mL ethanol 70% for at least 24 h at -20 °C. After fixation, MCF-7 cells were washed with PBS two times and stained with PI 20 µg/mL and RNase 200 µg/mL for 30 min in the dark at room temperature. A FACS Calibur ﬂow cytometer (BD Biosciences) was used for the assays and 20,000 events were analyzed. The number of cells distributed in sub-G1, G0/G1, S, and G2/M were determined by CellQuest software (BD, USA).
Figure 2 Representative cell cycle histograms of MCF-7 cells treated with synthesized derivatives. Analysis of the percentage of cells in different phases of cell cycle was performed using propidium iodide (PI)-RNase flow cytometric assay. MCF-7 cells were seeded in 6-well microplates and treated with synthesized derivatives for 48 h. The cells were then collected and fixed in 70% ethanol overnight at -20 °C. In the end, the cells were stained with DNA staining solution (PI 20 µg/mL and RNase 200 µg/mL) for 30 min and 20,000 events were analyzed by a FACS Calibur ﬂow cytometer (BD Biosciences). Representative histograms of cells treated with compounds 9g, 9j, 9k and 9l are shown
Background: A flow cytometer gives signals particle by particle.

In data set [11] the test system is MOLT-4 (lymphoblastic leukemia) cells. The experiment in a line: MTT reduction assay, antiproliferative effect, MOLT-4. Type of data set: cell-based, human. The conditions noted are these: Homo sapiens, MOLT-4, 72 h, read-out: MOLT-4 IC50.
Excerpt: as §1, §2
(Tetrazolium dyes change colour on reduction, which living cells bring about.)

In data set [12] the test system is MCF-7 (human breast adenocarcinoma) cells. The experiment in a line: MTT reduction assay, antiproliferative effect, MCF-7. Type of data set: cell-based. The conditions noted are these: Homo sapiens, MCF7, 72 h, read-out: MCF-7 IC50, MTT, 72 h incubation.
Excerpt: as §1, §2

In data set [13] the test system is MCF7 breast cancer cells. Also noted: method as in PMID 28763643, PMID 24393539. The note with it: ref [13], [31]; read-out: Cytotoxic effect against MCF7 breast cancer cells IC50; cited from earlier work.

`Oc1ccccc1C=NNc1nnc2c3ccccc3c3ccccc3c2n1` [Compound 9d, 2-((2-(phenanthro[9,10-e][1,2,4]triazin-3-yl)hydrazono)methyl)phenol]: the melting point (as a rule, the temperature, or range, at which the solid turns liquid) was 328 to 332 °C. The “Solubility in aqueous media” value in data set [1] is listed as “very low solubility in aqueous media”.

Take `CSc1nnc2c3ccccc3c3ccccc3c2n1` [Compound 5]: the IC50 – broadly, the concentration needed to halve the response being measured – in data set [2] was 120 µM.

In turn, `Sc1nnc2c3ccccc3c3ccccc3c2n1` [Compound 3] displayed a melting point of 122 to 124 °C. Besides, the half-maximal inhibitory concentration (IC50) in [3] is 7.6 µM.

`O=C1C(=O)c2ccccc2-c2ccccc21` [Compound 1]: the IC50 in data set [4] was 1.5 µM.

With `Cc1csc(N/N=C/c2ccccc2)n1` [Compound 6], the 50% inhibitory concentration (IC50) in [5] is 3.9 µM.

In turn, `COc1ccc(C=NNc2nnc3c4ccccc4c4ccccc4c3n2)cc1` [Compound 9c, 3-(2-(4-methoxybenzylidene)hydrazinyl)phenanthro[9,10-e][1,2,4]triazine] yielded a melting point of 288 to 292 °C. Besides, the “Solubility in aqueous media” value in [1] is “very low solubility in aqueous media”.

On to `O=C1NC(=O)/C(=C/c2ccc(-c3nc4c5ccccc5c5ccccc5c4[nH]3)cc2)S1` [Compound 2], for which the “Growth inhibition in A498 renal cancer cells” value in data set [6] was 93%.

Turning to `C(=NNc1nnc2c3ccccc3c3ccccc3c2n1)c1cccs1` [Compound 9l, 3-(2-(thiophene-2-ylmethylene)hydraz-inyl)phenanthro[9,10-e][1,2,4]triazine], the melting point lay in the range of 228 to 231 °C. For the same molecule, the IC50 in data set [7] amounted to 6.2 ± 3.1 µM. The IC50 in [8] amounted to 12.9 ± 3.5 µM. For the same molecule, the “Apoptosis induction by Hoechst 33258 staining” value in [9] is “showed signs of apoptosis”. Besides, in data set [10] (MCF-7, 10 µM), the “Percentage of cells in G0/G1” value is recorded as 73.76 ± 0.6, the “Percentage of cells in G2/M” value was 18.50 ± 1.7, the “Percentage of cells in S” value stood at 6.28 ± 1.0 and the “Percentage of cells in Sub G1” value is listed as 1.32 ± 0.3. Moreover, in data set [10] (MCF-7, 25 µM), the “Effect on cells in sub-G1 phase” value is “increased the cells in the sub-G1 phase”, the “Percentage of cells in G0/G1” value is listed as 72.07 ± 0.9, the “Percentage of cells in G2/M” value amounted to 19.43 ± 0.8 and the “Percentage of cells in S” value turned out to be 6.75 ± 0.9. The “Percentage of cells in Sub G1” value in data set [10] (MCF-7, 25 µM) stood at 1.56 ± 0.3. Also, the “Effect on number of cells in G0/G1” value in data set [10] is listed as “significantly enhanced the number of cells in the G0/G1”. Further, the IC50 in [11] stood at 6.8 ± 0.7 µM. Besides, in data set [12], the half-inhibitory concentration (IC50) is 6.9 ± 0.9 µM.

Regarding `O=[N+]([O-])c1cccc(/C=N/Nc2nnc3c(n2)-c2cccc4cccc-3c24)c1` [Compound 4], in data set [13], the concentration for half-maximal inhibition (IC50) was 61.9 µM.

The molecule `N#Cc1ccc(C=NNc2nnc3c4ccccc4c4ccccc4c3n2)cc1` [Compound 9j, 4-((2-(phenanthro[9,10-e][1,2,4]triazin-3-yl)hydrazono)methyl)benzonitrile] showed a melting point of 231 to 234 °C. Also, the 50% inhibitory concentration (IC50) in [7] is 11.3 ± 2.1 µM. For the same molecule, the IC50 in [8] amounted to 15.3 ± 1.5 µM. In addition, the “Apoptosis induction by Hoechst 33258 staining” value in data set [9] was “showed signs of apoptosis”. In data set [10] (MCF-7, 10 µM), the “Percentage of cells in G0/G1” value was determined as 71.40 ± 2.2, the “Percentage of cells in G2/M” value came to 17.95 ± 3.0, the “Percentage of cells in S” value was 9.59 ± 2.0 and the “Percentage of cells in Sub G1” value was 1.08 ± 0.2. In addition, in data set [10] (MCF-7, 25 µM), the “Percentage of cells in G0/G1” value stood at 73.10 ± 3.0, the “Percentage of cells in G2/M” value is recorded as 17.51 ± 2.6, the “Percentage of cells in S” value was 8.09 ± 2.0 and the “Percentage of cells in Sub G1” value is 1.30 ± 0.4. Moreover, the “Effect on number of cells in G0/G1” value in [10] is reported as “significantly enhanced the number of cells in the G0/G1”. Besides, the half-inhibitory concentration (IC50) in data set [11] stood at 5.5 ± 0.1 µM. In [12], the concentration for half-maximal inhibition (IC50) stood at 5.8 ± 0.7 µM.
